From patent US20250368639A1, “SOLID FORMS OF A COMPOUND FOR TREATING OR PREVENTING HYPERURICEMIA OR GOUT” (ATOM THERAPEUTICS CO., LTD, priority 2022, published 2025)
Entries after “also recorded” stand apart in the source; their conditions may differ. Like-named read-outs stand apart in the source and are kept apart here.

What was measured:
[1] = Dynamic vapor sorption/desorption (DVS); assay type: physicochemical
Experimental: Moisture sorption/desorption data were collected on a SMS DVS intrinsic Vapor Sorption Analyzer under a nitrogen purge. The DVS experiment generally includes a moisture sorption step and a moisture desorption step. […] In other words, the sample is considered to have reached an equilibrium between moisture sorption and desorption under the relative humidity when dm/dt≤0.01%. The sample was maintained at the temperature of 25° C. with relative humidity varied from 0% to 95%, and back to 0% at an increment of 5% RH each step.

[2] = Suspensions for animal formulation in 0.5% CMC-Na (XRPD); assay type: physicochemical; conditions: about 30 mg in 30 ml, sonication
Experimental: About 30 mg of Form 1, Form 2, and Form 5D were each added into a respective 40 ml glass bottle and mixed with 30 ml of 0.5% CMC-Na solution. The solids were dispersed uniformly in the solution with the aid of sonication. After that, the solids were isolated by centrifugation, dried at room temperature, and the dry solid analyzed with XRPD.

[3] = Solid state stability under stress conditions (XRPD, HPLC); assay type: physicochemical
Experimental: Form 1. Form 2, Form 6, Form 8, and Form 11 were each placed under following stress conditions: (1) in a closed vial at a temperature of about 60° C., and (2) in a closed vial at a temperature of about 40′° C. and a humidity of about 75% RH. The solids were analyzed with XRPD at 1 week and 2 weeks intervals.
Additionally, all forms were analyzed with HPLC for impurity at the 1 week and 2 weeks intervals. In a typical analysis, about 5 mg of forms were each dissolved in 10 ml of diluents with the aid of sonication for 2 minutes. THF was used as the diluent for Form 1, and methanol was used as the diluent for Form 6, Form 8, and Form 11. The HPLC analysis utilized Agilent Eclipse XDB-C18 4.6*150 mm. 3.5 μm at 30° C., a mobile phase of a gradient between 0.1% H3PO4 and acetonitrile (9:1 to 2:8 to 9:1), an injection volume of 10 μl, a flow rate of 1.0 ml/min, and a detection wavelength of 214 nm.
Form 2 was further subject to the stability test in an open vial at 40° C. and a relative humidity of 75% RH.

[4] = Single-dose pharmacokinetic study, oral and intravenous, in SD rats; assay type: in vivo, SD rat; conditions: for AUC(0-inf): read-out: AUCINF—pred; for half-life: read-out: HL_Lambda_z (T1/2) (converted); for Vd/F: read-out: Vz—F—pred;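 on AUClast: AUClast in h·ng/mL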
Experimental: Form 1, Form 2, and Form 5D were each evaluated via a single-dose pharmacokinetic study following oral and intravenous administration in SD rats. […] Form 1, Form 2, and Form 5Dwere evaluated by rat pharmacokinetics study.
Male SD rat was purchased from Shanghai Sippr B&K Laboratory Animals Co., Ltd. The weight was 180 g˜200 g.
20% HP-β-CD was prepared from dissolving20 g of HP-β-CD (from Sigma) in 100 mL purified water. 0.5% CMC-Na was prepared from dissolving 1 g of CMC-Na (from Aladdin) in 200 mL purified water. The solutions were stored at 2-8 degree.
Group 1:4.95 mg (equivalent to 4.50 mg of anhydrous free base) of Form 1 was weighed out into a 20 ml bottle, and totally dissolved by 0.225 mL DMSO by sonication. After that, 4.275 mL of 20% HP-β-CD was added, mixed well by sonication. Finally, the pH value was adjusted to 7.0 by sodium hydroxide solution. The clear solution was obtained, and the concentration was 1 mg/mL.
Group 2:10.08 mg (equivalent to 9.164 mg of anhydrous free base) of Form 1 was weighed out into a 20 ml bottle, and then 9.164 mL of 0.5% CMC-Na was added. A white suspension was formed after sonicated by ultrasonic cell disruptor, and the concentration was 1 mg/mL.
Group 3:9.47 mg of Form 2 was weighed out into a 20 ml bottle, and then 9.470 mL of 0.5% CMC-Na was added. After sonicated, it was mixed well by homogenizer for 2 minutes. Finally, a white suspension was formed, and the concentration was 1 mg/mL.
Group 4:9.80 mg (equivalent to 8.909 mg of free base) of Form 5Dwas weighed out into a 20 mL bottle, and then 8.909 mL of 0.5% CMC-Na was added. After sonicated, it was mixed well by homogenizer for 2 minutes. Finally, a white suspension was formed, and the concentration was 1 mg/mL.
Group 5:1.94 mg (equivalent to 1.763 mg of anhydrous free base) of Form 1 was weighed out into a 20 ml bottle, and totally dissolved by 0.088 mL DMSO by sonication. After that, 1.675 mL of 20% HP-β-CD was added, mixed well by sonication. Finally, the pH value was adjusted to 7.0 by sodium hydroxide solution. The clear solution was obtained, and the concentration was 0.2 mg/mL.
The dose of intravenous administration was 1 mg/kg and 5 mg/kg, respectively. The oral dose was 10 mg/kg. Animals were fasted overnight before drug administration. After the drug administration, the rats were fed at the 4 hours.
About 150˜200 μL of blood was collected at the initial time (only intravenous), and at 0.25, 0.5, 1, 2, 4, 6, 8 and 24 h by jugular venipuncture blooding method. EDTA-K2 was selected as anticoagulant. Blood samples were centrifuged within one hour at 6000 rpm for 8 minutes (placed on wet ice before centrifugation). The supernatant was stored at −20° C. for LC-MS/MS analysis.
The computer program Microsoft Office Excel 2007 (Microsoft, USA) was used to process data and graphics. The pharmacokinetic parameters were calculated by WinNolin 6.4 software.

[5] = male SD rats, oral 10 mg/kg, Average (Table 10)
[6] = male, SD, rat, plasma, po, 10 mg/kg, male SD rats, oral 10 mg/kg, Average (Table 10)
[7] = male, SD, rat, plasma, po, 10 mg/kg, male SD rats, oral 10 mg/kg, individual rats 301/302/303 (c1/c2/c3)

Q: For CCc1nc2ccccn2c1C(=O)c1cc(Br)c(O)c(C#N)c1 [Form 2, 3-bromo-5-[(2-ethylimidazo[1,2-a]pyridin-3-yl)carbonyl]-2-hydroxybenzonitrile], which “DVS (80% RH)” value ([1]; 25° C., 80% RH) is on record?
A: The value was 0.40%.

Q: And the “Water remaining within the sample (DVS desorption)” value ([1]; relative humidity decreased back to 0%)?
A: Its value is “about 3.4%”.

Q: And the “Hygroscopicity (DVS)” value ([1]; relative humidity less than 80%)?
A: Its value is “low hygroscopicity”.

Q: What about the “Crystal form after DVS analysis (XRPD)” value ([1]; sample following DVS analysis) of the same compound?
A: Its value is “converted into Form 1”.

Q: And the “Water absorbed (DVS)” value ([1]; when relative humidity reached 85% RH)?
A: The value was “about 3.8%”.

Q: What about the “Crystal form after dispersion in 0.5% CMC-Na solution (XRPD)” value [2] of the same compound?
A: The value was “transformed into Form 1”.

Q: What about the “XRPD pattern after stress storage” value ([3]; closed vial about 60° C., closed vial about 40° C./75% RH, 1 week and 2 weeks) of the same compound?
A: Its value is “substantially similar to those received at the initial time”.

Q: And the “XRPD after storage in an open vial” value ([3]; open vial, 40° C., 75% RH)?
A: Its value is “significant changes at the end of ninth day”.

Q: What about the “Exposure and bioavailability (words, comparison)” value ([4]; SD rats, oral administration 10 mg/kg, 10 mg/kg) of the same compound?
A: The value was “higher dose exposure and bio-availability than Form 1; also recorded: higher exposure (AUC0-1) and better bioavailability than Form 1; also recorded: approximately the same as Form 5D; also recorded: sufficiently high bioavailability”.

Q: And the AUClast [4, 5]?
A: The AUClast was 88482.4 ng·h/mL.

Q: What about the “Cl—F—pred” value [4, 5] of the same compound?
A: The value was 2 mL/min/kg.

Q: What about the F ([4]; male SD rats, oral 10 mg/kg, calculated by intravenous administration of 1 mg/kg, Average (Table 10)) of the same compound?
A: Its F is 50.98%.

Q: And the Cmax [4, 6]?
A: Its Cmax is 7950 ng/mL.

Q: And the MRT last [4, 6]?
A: The MRT last was 6.12 h.

Q: And the Tmax [4, 6]?
A: The Tmax was 4 h.

Q: And the AUC(0-inf) [4, 6]?
A: The AUC(0-inf) was 89100 ng·h/mL.

Q: What about the half-life [4, 6] of the same compound?
A: Its half-life is 3.08 h.

Q: And the Vd/F [4, 6]?
A: The Vd/F was 0.52 L/kg.

Q: And the AUC(0-t) [4, 7]?
A: Its AUC(0-t) is 108000 ng·h/mL.

Q: What about the Cmax [4, 7] of the same compound?
A: Its Cmax is 8490 ng/mL.

Q: What about the MRT last [4, 7] of the same compound?
A: The MRT last was 6.15 h.

Q: What about the Tmax [4, 7] of the same compound?
A: Its Tmax is 4 h.

Q: What about the AUC(0-inf) [4, 7] of the same compound?
A: Its AUC(0-inf) is 92400 ng·h/mL.

Q: What about the half-life [4, 7] of the same compound?
A: The half-life was 3.32 h.

Q: And the Vd/F [4, 7]?
A: Its Vd/F is 0.45 L/kg.
